From ChEMBL document CHEMBL4616616, “Identification of a C3'-nitrile nucleoside analogue inhibitor of pancreatic cancer cell line growth” (Bioorg Med Chem Lett, 2020) come the findings set out here.

Usually EC50 stands for the midpoint of the concentration-response curve.

For experiment [1], the system named is BXPC-3. Briefly: Antiproliferative activity against human BxPC3 cells harboring wild type KRAS and TP53 mutation assessed as inhibition of cell growth at 25 uM incubated for 96 hrs by cell-titer-Glo 2.0 assay. It counts as functional, cell-based.
Experiment [2] has as its system Capan-2. Description: Antiproliferative activity against human Capan2 cells harboring TP53 and G12V KRAS mutations assessed as inhibition of cell growth at 25 uM incubated for 96 hrs by cell-titer-Glo 2.0 assay.
Experiment [3] deals with BXPC-3. Description: Antiproliferative activity against human BxPC3 cells harboring wild type KRAS and TP53 mutation assessed as cell killing incubated for 96 hrs by cell-titer-Glo 2.0 assay relative to control. Format: functional.
For experiment [4], the system named is BXPC-3. Description: Antiproliferative activity against human BxPC3 cells harboring wild type KRAS and TP53 mutation assessed as maximal inhibition of cell growth at 2.5 uM incubated for 96 hrs by cell-titer-Glo assay. It counts as functional, cell-based.
Experiment [5] relates to Capan-2. Briefly: Antiproliferative activity against human Capan2 cells harboring TP53 and G12V KRAS mutations assessed as inhibition of cell growth incubated for 96 hrs by cell-titer-Glo 2.0 assay relative to control.
For experiment [6], the system named is Capan-2. Briefly: Antiproliferative activity against human Capan2 cells harboring TP53 and G12V KRAS mutations assessed as inhibition of cell growth incubated for 96 hrs by cell-titer-Glo assay. The note with it: Capan-2, 96 h.
Experiment [7] concerns BXPC-3. Briefly: Antiproliferative activity against human BxPC3 cells harboring wild type KRAS and TP53 mutation assessed as inhibition of cell growth incubated for 96 hrs by cell-titer-Glo 2.0 assay. The note with it: BXPC-3, 96 h. It counts as functional, cell-based.
Experiment [8] relates to Capan-2. Briefly: Antiproliferative activity against human Capan2 cells harboring TP53 and G12V KRAS mutations assessed as cell killing incubated for 96 hrs by cell-titer-Glo 2.0 assay relative to control.

The source made the active and inactive calls. No cut-off for these calls is given here.

Consider `C[C@]1(CC#N)[C@H](F)[C@H](n2cnc3c(N)nc(Cl)nc32)O[C@@H]1CO`, for which the inhibition result in the experiment with BXPC-3 [1] and in the experiment with Capan-2 [2] was “inactive” in each case.
For the molecule `C[C@]1(CC#N)[C@H](F)[C@H](n2cnc3c(NCc4ccccc4)nc(Cl)nc32)O[C@@H]1CO`, in the experiment with BXPC-3 [3], the Activity stood at 20%.
As for `Nc1ccn([C@@H]2O[C@H](CO)[C@@H](O)C2(F)F)c(=O)n1` [GEMCITABINE], the inhibition result in the experiment with BXPC-3 [4] was “Active”. The Imax in the experiment with Capan-2 [5] is 40%.
In the case of `CC(C)OC(=O)[C@H](C)N[P@](=O)(OC[C@H]1O[C@@H](n2cnc3c(NCc4ccccc4)nc(Cl)nc32)[C@@H](F)[C@]1(C)CC#N)Oc1ccccc1`, the 50% effective concentration (EC50) is 7 µM with Capan-2 [6] and 12 µM with BXPC-3 [7]. Besides, the Activity in the experiment with BXPC-3 [3] stood at 60%; in the experiment on Capan-2 [8], 80%.
